Assay: Accelerated storage test: decomposition of ascorbic acid in the composition after two months at 45° C., HPLC
Assay type: physicochemical
Conditions: formulated in the presence of Lubrizol 5603, compared with conventional emulsifier; even in the presence of oxygen
Procedure: The aim of this test is to study the decomposition of an oxidation-sensitive hydrophilic active principle in a composition, after storage for two months at 45° C.
The degree of decomposition measured is given by the ratio: (C0-C2 months)/C0 with C0 being the concentration of ascorbic acid at t=0 and C2 months being the concentration of ascorbic acid at t=2 months.
The concentration of ascorbic acid is determined by the HPLC technique (Merck LaChrom system). The analytical conditions are as follows: • Column: Lichrosphere 100 RP18 (250 mm) • Eluant: 0.1M phosphate buffer, pH 2.1 • Flow rate: 1 ml/min • Detection at 257 nm. • Dilution of the sample such that the concentration of ascorbic acid is between 0.05 and 1 mg/ml.
The test was carried out with the composition Example 1, and with the composition of Comparative Example 1 which contains, instead of the polymer according to the invention, a conventionally used emulsifier, cyclopentasiloxane and PEG/PPG-18/18 dimethicone.

Q: With `O=C1O[C@H]([C@@H](O)CO)C(O)=C1O` [ascorbic acid] as the compound, how does the “Increase of stability of the ascorbic acid” value read?
A: 50%

Reference: patent US20050008596A1, “Composition containing an oxidation-sensitive active principle and a polyisobutylene polymer” (L'OREAL, priority 2003, published 2005)
